Assay results published in patent US10336788B2, “Inhibition of cardiac fibrosis in myocardial infarction” (Moerae Matrix, Inc., priority 2014, dated 2019).
No end group written: not given here.

How the values were obtained:
[1] = test system: bleomycin-induced pulmonary fibrosis; details: Vittal et al. 2013; cited from earlier work
HL1 cells = assay: LDH release assay in HL1 cells (1% hypoxia or normoxia); type: cell-based, mouse; details: for LDH release: 1% hypoxia
Description: H9C2 is a myoblast cell line derived from rat myocardium obtained from ATCC® (CRL-1446, ATCC, Manassas, Va.) and cultured according to the recommended protocols. Briefly, cells were maintained at 37° C. with 5% CO2 in DMEM supplemented with 10% fetal bovine serum and antibiotics (100 U/ml penicillin, […] streptomycin) and split at a ratio of 1:4 using 0.05% trypsin every 36 hours. HL-1 cells were obtained from Dr. William Claycomb and cultured according to the published protocols [Claycomb W C, Lanson N A, Jr., Stallworth B S, Egeland D B, Delcarpio J B, Bahinski A, et al. HL-1 cells: a cardiac muscle cell line that contracts and retains phenotypic characteristics of the adult cardiomyocyte. Proc. Natl Acad. Sci. USA. 1998; 95:2979-84; White S M, Constantin P E, Claycomb W C. Cardiac physiology at the cellular level: use of cultured HL-1 cardiomyocytes for studies of cardiac muscle cell structure and function. Am. J. Physiol. Heart Circul. Physiol. 2004; 286:H823-9]. Briefly, cells were cultured in Claycomb medium (JRH Biosciences, USA) supplemented with 10% fetal bovine serum (JRH Biosciences), 2 mM L-glutamine (Gibco, Grand Island, N.Y.), 100 μM norepinephrine (Sigma, USA), 100 U/mL penicillin, and 100 μg/mL streptomycin (Gibco) in flasks precoated with fibronectin and gelatin (Sigma), then incubated at 37° C. in 5% CO2. Cells were split at a ratio of 1:4 using 0.05% trypsin every 48 hours. Primary cardiac fibroblasts were obtained from 2-4-day-old Sprague Dawley rats, according to previously described protocols (cat. #L K003300, Worthington Biochemical Corp., Lakewood, N.J.) [Toraason M, Luken M E, Breitenstein M, Krueger J A, Biagini R E. Comparative toxicity of allylamine and acrolein in cultured myocytes and fibroblasts from neonatal rat heart. Toxicology. […]
(§1) Cells were rinsed in PMS and grown in DMEM (cat. #11966-025, Gibco) for 2 hours prior to initiating hypoxia (simulated ischemia). […] Three different time points were adopted for each of the three cell lines according to the severity of cell death under hypoxia determined by LDH release: for H9C2 cell line: 8 hr; 16 hr; 24 hr; for HL-1 cell line: 4 hr; 8 hr; 12 hr; for cardiac fibroblast cell line: 16 hr; 32 hr; 48 hr.
(§2) Cell death was first determined using an LDH release assay (cat. #630117, Clontech), according to the manufacturer's instructions. […] Caspase 3/7 activity was next determined using a commercial Caspase 3/7 activity kit (Cat. #G8091, Promega, Madison, Wis. 53711) in a 384 well plate (Cat. #781903, Greiner bio-one) according to the manufacturer's instructions. […] The resulting cell lysates (25 μl, with 0.6 ug total protein) and Caspase-Glo 3/7 Reagent were added to each well in a 1:1 ratio and the luminescence was read (CLARIOstar, BMG LABTECH GmbH). […]

C57BL/6 mice = assay: Survival analysis (Kaplan-Meier) after permanent LAD ligation or daily peptide; type: in vivo, mouse
Description: Nature Medicine. […] Nature. 2012; 485:593-8]. […] Proc Natl Acad Scie USA. […] Circulation Res. 2009; 105:80-8].
SigmaPlot (Systat Software, Inc., San Jose, Calif.) was used to determine significant statistical differences using a Log-rank (Mantel-Cox) test to determine differences in survival or a Kruskal-Wallis one-way ANOVA for both in vivo and in vitro studies at each terminal time point in experiments run in parallel. If significance was reached (p<0.05), a post-hoc all pairwise Multiple Comparison Procedures (Tukey Test) was performed between each of the groups to determine significance. Significance was defined as p<0.05.

[2] = test system: primary cardiac fibroblasts; assay: Caspase 3/7 activity in primary cardiac fibroblasts challenged with 1% hypoxia; type: cell-based, rat; details: 100 μM, 16 and 32 hours of hypoxia
Description: H9C2 is a myoblast cell line derived from rat myocardium obtained from ATCC® (CRL-1446, ATCC, Manassas, Va.) and cultured according to the recommended protocols. Briefly, cells were maintained at 37° C. with 5% CO2 in DMEM supplemented with 10% fetal bovine serum and antibiotics (100 U/ml penicillin, […] streptomycin) and split at a ratio of 1:4 using 0.05% trypsin every 36 hours. […]
as §1, §2

YARAAARQARAKALARQLGVAA [MMI-0100]
inflammation and fibrosis in bleomycin-induced pulmonary fibrosis [1]: inhibits inflammation and fibrosis | LDH release (HL1 cells; 100 μM only, 8 hours): enhanced | LDH release in normoxic conditions (HL1 cells; 100 μM, normoxia (FIG. 11B)): unexpectedly inhibited | LDH release (HL1 cells; 20 and 100 μM, 4 hours): significantly enhanced | LDH release in normoxic conditions (HL1 cells; absence of hypoxia, 4 hours): did not enhance LDH release | survival after AMI with or without MMI-0100 treatment (C57BL/6 mice; AMI mice, daily intraperitoneal dosing, 14 days): no differences in survival | effect on survival, MMI-0100 alone (C57BL/6 mice; mice without AMI, daily MMI-0100 intraperitoneally vs PBS): did not have any effect | caspase 3/7 activity [2]: significantly enhanced
